Measurements from US7799809B2, “Carboxamide compounds and their use as calpain inhibitors” (Abbott GmbH & Co. KG, priority 2006, dated 2010).

What was measured:
Type in all cases: biochemical
cathepsin B = target: T1, cathepsin B (Homo sapiens, UniProt P07858); assay: Cathepsin B enzyme inhibition in vitro (kinetic fluorescence assay); conditions: cathepsin B isolated from human liver vs calpain I
T1 construct: cathepsin B—isolated from human liver (Calbiochem #219362); purchased Calbiochem 219362; host or cells: human liver (tissue-derived)
Summary of the method: (§1)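 Inhibition is measured at room temperature in cysteine-containing MES buffer, pH 6.0, by continuous fluorescence at 460 nm. Cathepsin S (0.5 nM) uses 20 μM Z-Val-Val-Arg-AMC; L (1 nM) and B (0.25 nM) use Z-Phe-Arg-AMC at 2 and 100 μM respectively.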

cathepsin K = target: T2, cathepsin K (Homo sapiens, UniProt P43235); assay: Cathepsin K enzyme inhibition in vitro (kinetic fluorescence assay); conditions: cathepsin K activated from recombinant human procathepsin K vs calpain I
T2 construct: purchased Calbiochem 342001; host or cells: E. coli
T2 sequence (P43235 115-329): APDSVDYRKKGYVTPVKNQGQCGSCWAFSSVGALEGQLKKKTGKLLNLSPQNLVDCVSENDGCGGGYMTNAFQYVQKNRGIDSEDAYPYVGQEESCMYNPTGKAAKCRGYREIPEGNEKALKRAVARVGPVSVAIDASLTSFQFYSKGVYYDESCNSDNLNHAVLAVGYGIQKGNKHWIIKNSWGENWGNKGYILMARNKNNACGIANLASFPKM

cathepsin L = target: T3, cathepsin L (Homo sapiens, UniProt P07711); assay: Cathepsin L enzyme inhibition in vitro (kinetic fluorescence assay); conditions: cathepsin L isolated from human liver vs calpain I
T3 construct: cathepsin L—isolated from human liver (Calbiochem #219402); purchased Calbiochem 219402; host or cells: human liver (tissue-derived)
T3 sequence (P07711 114-333): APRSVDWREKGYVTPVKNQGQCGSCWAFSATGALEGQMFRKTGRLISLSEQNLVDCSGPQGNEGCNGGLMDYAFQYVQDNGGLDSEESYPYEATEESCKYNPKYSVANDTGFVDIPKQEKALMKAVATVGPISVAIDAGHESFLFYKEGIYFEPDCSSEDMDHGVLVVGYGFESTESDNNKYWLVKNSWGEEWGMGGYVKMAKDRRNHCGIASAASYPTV
Summary of the method: as §1

cathepsin S = target: T4, cathepsin S (Homo sapiens, UniProt P25774); assay: Cathepsin S enzyme inhibition in vitro (kinetic fluorescence assay); conditions: recombinant human cathepsin S vs calpain I
T4 construct: purchased Calbiochem 219343; host or cells: E. coli
T4 sequence (P25774 115-331): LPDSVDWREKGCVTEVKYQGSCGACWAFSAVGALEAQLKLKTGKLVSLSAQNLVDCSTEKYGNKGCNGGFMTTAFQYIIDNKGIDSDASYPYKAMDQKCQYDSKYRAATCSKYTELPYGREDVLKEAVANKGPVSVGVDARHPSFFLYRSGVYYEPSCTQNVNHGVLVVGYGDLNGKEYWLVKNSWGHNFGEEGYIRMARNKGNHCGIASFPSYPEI
Summary of the method: as §1

SMILES | Sel cat. B: Ki(cathepsin B)/Ki(calpain) ratio (cathepsin B) | Sel cat. K: Ki(cathepsin K)/Ki(calpain) ratio (cathepsin K) | Sel cat. L: Ki(cathepsin L)/Ki(calpain) ratio (cathepsin L) | Sel cat. S: Ki(cathepsin S)/Ki(calpain) ratio (cathepsin S)
NC(=O)C(=O)C(Cc1ccc(Cl)cc1)NC(=O)c1cccnc1-n1ccc(-c2ccccc2)n1 (stereo not shown) [Example 50, N-[3-Amino-1-(4-chlorobenzyl)-2,3-dioxopropyl]-2-(3-phenyl-1H-pyrazol-1-yl)nicotinamide] | + (+ means 10≦Ki(cathepsin B)/Ki(calpain)<30) | + (+ means 10≦Ki(cathepsin K)/Ki(calpain)<30) | + (+ means 30≦Ki(cathepsin L)/Ki(calpain)<50) | + (+ means 50≦Ki(cathepsin S)/Ki(calpain)<100)
NC(=O)C(=O)C(Cc1ccccc1)NC(=O)c1cccnc1-n1cc2c(n1)-c1cccc(Cl)c1OC2 (stereo not shown) [Example 175, N-[3-Amino-2,3-dioxo-1-(phenylmethyl)propyl]-2-(6-chlorochromeno[4,3-c]pyrazol-2(4H)-yl)pyridine-3-carboxamide] | ++ (++ means a Ki(cathepsin B)/Ki(calpain) ratio of ≧30) | ++ (++ means a Ki(cathepsin K)/Ki(calpain) ratio of ≧30) | ++ (++ means a Ki(cathepsin L)/Ki(calpain) ratio of ≧50) | ++ (++ means a Ki(cathepsin S)/Ki(calpain) ratio of ≧100)
NC(=O)C(=O)C(Cc1ccccc1)NC(=O)c1cccnc1-n1ccc(-c2cccc3ccccc23)n1 (stereo not shown) [Example 110, N-[3-Amino-2,3-dioxo-1-(phenylmethyl)propyl]-2-(3-naphthalen-1-yl-1H-pyrazol-1-yl)pyridine-3-carboxamide] | ++ (++ means a Ki(cathepsin B)/Ki(calpain) ratio of ≧30) | ++ (++ means a Ki(cathepsin K)/Ki(calpain) ratio of ≧30) | ++ (++ means a Ki(cathepsin L)/Ki(calpain) ratio of ≧50) | ++ (++ means a Ki(cathepsin S)/Ki(calpain) ratio of ≧100)
COc1ccc(CC(NC(=O)c2cccnc2-n2ccc(-c3ccccc3)n2)C(=O)C(N)=O)cc1 (stereo not shown) [Example 80, N-[3-Amino-1-(4-methoxybenzyl)-2,3-dioxopropyl]-2-(3-phenyl-1H-pyrazol-1-yl)nicotinamide] | ++ (++ means a Ki(cathepsin B)/Ki(calpain) ratio of ≧30) | + (+ means 10≦Ki(cathepsin K)/Ki(calpain)<30) | ++ (++ means a Ki(cathepsin L)/Ki(calpain) ratio of ≧50) | ++ (++ means a Ki(cathepsin S)/Ki(calpain) ratio of ≧100)
NC(=O)C(=O)C(Cc1ccccc1)NC(=O)c1cccnc1-n1ccc(-c2c(Cl)cccc2Cl)n1 (stereo not shown) [Example 95, N-[3-Amino-2,3-dioxo-1-(phenylmethyl)propyl]-2-[3-(2,6-dichlorophenyl)-1H-pyrazol-1-yl]pyridine-3-carboxamide] | ++ (++ means a Ki(cathepsin B)/Ki(calpain) ratio of ≧30) | ++ (++ means a Ki(cathepsin K)/Ki(calpain) ratio of ≧30) | ++ (++ means a Ki(cathepsin L)/Ki(calpain) ratio of ≧50) | ++ (++ means a Ki(cathepsin S)/Ki(calpain) ratio of ≧100)
NC(=O)C(=O)C(Cc1ccccc1)NC(=O)c1cccnc1-n1ccc(-c2ccc(N3CCOCC3)cc2Cl)n1 (stereo not shown) [Example 99, N-[3-Amino-2,3-dioxo-1-(phenylmethyl)propyl]-2-[3-(2-chloro-4-morpholin-4-ylphenyl)-1H-pyrazol-1-yl]pyridine-3-carboxamide] | ++ (++ means a Ki(cathepsin B)/Ki(calpain) ratio of ≧30) | ++ (++ means a Ki(cathepsin K)/Ki(calpain) ratio of ≧30) | ++ (++ means a Ki(cathepsin L)/Ki(calpain) ratio of ≧50) | ++ (++ means a Ki(cathepsin S)/Ki(calpain) ratio of ≧100)
COc1ccc(CC(NC(=O)c2cccnc2-n2ccc(-c3ccc4c(c3)OC(F)(F)O4)n2)C(=O)C(N)=O)cc1 (stereo not shown) [Example 137, N-(3-Amino-1-{[4-(methyloxy)phenyl]methyl}-2,3-dioxopropyl)-2-[3-(2,2-difluoro-1,3-benzodioxol-5-yl)-1H-pyrazol-1-yl]pyridine-3-carboxamide] | + (+ means 10≦Ki(cathepsin B)/Ki(calpain)<30) | + (+ means 10≦Ki(cathepsin K)/Ki(calpain)<30) | ++ (++ means a Ki(cathepsin L)/Ki(calpain) ratio of ≧50) | ++ (++ means a Ki(cathepsin S)/Ki(calpain) ratio of ≧100)
NC(=O)C(=O)C(Cc1ccccc1)NC(=O)c1cccnc1-n1ccc(-c2ccccc2C(F)(F)F)n1 (stereo not shown) [Example 72, N-(3-Amino-1-benzyl-2,3-dioxopropyl)-2-{3-[2-(trifluoromethyl)phenyl]-1H-pyrazol-1-yl}nicotinamide] | + (+ means 10≦Ki(cathepsin B)/Ki(calpain)<30) | + (+ means 10≦Ki(cathepsin K)/Ki(calpain)<30) | + (+ means 30≦Ki(cathepsin L)/Ki(calpain)<50) | ++ (++ means a Ki(cathepsin S)/Ki(calpain) ratio of ≧100)
NC(=O)C(=O)C(Cc1ccc(Cl)cc1)NC(=O)c1cccnc1-n1ccc(-c2ccc(F)cc2)n1 (stereo not shown) [Example 67, N-[3-Amino-1-(4-chlorobenzyl)-2,3-dioxopropyl]-2-[3-(4-fluorophenyl)-1H-pyrazol-1-yl]nicotinamide] | + (+ means 10≦Ki(cathepsin B)/Ki(calpain)<30) | + (+ means 10≦Ki(cathepsin K)/Ki(calpain)<30) | ++ (++ means a Ki(cathepsin L)/Ki(calpain) ratio of ≧50) | ++ (++ means a Ki(cathepsin S)/Ki(calpain) ratio of ≧100)
Cc1ccccc1-c1ccn(-c2ncccc2C(=O)NC(Cc2ccccc2)C(=O)C(N)=O)n1 (stereo not shown) [Example 93, N-[3-Amino-2,3-dioxo-1-(phenylmethyl)propyl]-2-[3-(2-methylphenyl)-1H-pyrazol-1-yl]pyridine-3-carboxamide] | ++ (++ means a Ki(cathepsin B)/Ki(calpain) ratio of ≧30) | + (+ means 10≦Ki(cathepsin K)/Ki(calpain)<30) | ++ (++ means a Ki(cathepsin L)/Ki(calpain) ratio of ≧50) | ++ (++ means a Ki(cathepsin S)/Ki(calpain) ratio of ≧100)
COc1cc(F)ccc1-c1ccn(-c2ncccc2C(=O)NC(Cc2ccccc2)C(=O)C(N)=O)n1 (stereo not shown) [Example 125, N-[3-Amino-2,3-dioxo-1-(phenylmethyl)propyl]-2-{3-[4-fluoro-2-(methyloxy)phenyl]-1H-pyrazol-1-yl}pyridine-3-carboxamide] | ++ (++ means a Ki(cathepsin B)/Ki(calpain) ratio of ≧30) | ++ (++ means a Ki(cathepsin K)/Ki(calpain) ratio of ≧30) | ++ (++ means a Ki(cathepsin L)/Ki(calpain) ratio of ≧50) | ++ (++ means a Ki(cathepsin S)/Ki(calpain) ratio of ≧100)
COc1ccc(CC(NC(=O)c2cccnc2-n2ccc(-c3ccc(Cl)cc3Cl)n2)C(=O)C(N)=O)cc1 (stereo not shown) [Example 98, N-(3-Amino-1-{[4-(methyloxy)phenyl]methyl}-2,3-dioxopropyl)-2-[3-(2,4-dichlorophenyl)-1H-pyrazol-1-yl]pyridine-3-carboxamide] | ++ (++ means a Ki(cathepsin B)/Ki(calpain) ratio of ≧30) | ++ (++ means a Ki(cathepsin K)/Ki(calpain) ratio of ≧30) | ++ (++ means a Ki(cathepsin L)/Ki(calpain) ratio of ≧50) | ++ (++ means a Ki(cathepsin S)/Ki(calpain) ratio of ≧100)
NC(=O)C(=O)C(Cc1ccccc1)NC(=O)c1cccnc1-n1ccc(-c2ccccc2F)n1 (stereo not shown) [Example 76, N-(3-Amino-1-benzyl-2,3-dioxopropyl)-2-[3-(2-fluorophenyl)-1H-pyrazol-1-yl]nicotinamide] | ++ (++ means a Ki(cathepsin B)/Ki(calpain) ratio of ≧30) | + (+ means 10≦Ki(cathepsin K)/Ki(calpain)<30) | ++ (++ means a Ki(cathepsin L)/Ki(calpain) ratio of ≧50) | ++ (++ means a Ki(cathepsin S)/Ki(calpain) ratio of ≧100)
